{"source": "patent US20130210034A1", "about": "“COMPLEX PHOSPHOPROTEIN ACTIVATION PROFILES” (BECKMAN COULTER, INC., priority 2005, published 2013)", "type_in_all_cases": "cell-based, human", "key": {"pERK [1]": {"tested_on": "pERK", "assay": "Phosphoprotein kinetic profiles in bone marrow samples from healthy donors", "experimental": "(§1) Phosphoprotein kinetic profiles were analyzed in bone marrow aspiration samples from nine healthy, adult donors (i.e., normal bone marrow or NBM) and from five AML patients. Samples from healthy donors included 5 males and 4 females, ranging in age from 26 to 49 years. Approximately 10 to 20 mL of bone marrow (BM) samples were collected from the posterior iliac crest of the volunteers using IRB approved protocols. The BM samples were filtered using a 40 μm Nylon cell strainer to remove marrow particles and the white blood cell concentration determined using a blood analyzer. […] The samples were immediately used for subsequent experimentation.\n(§2) To assess the signal transduction response after growth factor simulation, 100 to 200 μL of processed samples including about 2×10^6 WBC/100 μL were added to tubes and incubated at 37° C. for 30 minutes. For inhibition experiments, cells were incubated with 100 μM U0126, 1 μg/mL rapamycin, or both for at least 20 minutes prior to cytokine addition and in all cases for 30 min prior to formaldehyde addition. […] After stimulation the cells were immediately fixed by the addition of formaldehyde to a final concentration of 4% v/v and incubated for 10 minutes at room temperature. Following fixation, red blood cells were lysed by the addition of TRITON-X/PBS solution (0.1% v/v final concentration Triton X-100) supplemented with a 1 x phosphatase inhibitor cocktail (PIC; final concentrations: 0.2 mM sodium orthovanadate, 2 mM sodium pyrophosphate decahydrate, 2 mM [3-glycerophosphate, and 10 mM sodium fluoride) and incubation at 37° C. for 20 minutes. The incubated solution was chilled by the addition of ice-cold Wash Buffer (final concentration 1×PBS and either 4% bovine serum albumin (BSA) or 4% heat-inactivated fetal bovine serum (FBS), supplemented with 1×PIC), and the samples were centrifuged at 300 g for 6 minutes at 4° C.). If the lysis was incomplete, samples were retreated with 0.1% Triton X-100 at 37° C. for 10 to 20 minutes. After removal of the supernatant, cells were washed twice in ice-cold Wash Buffer supplemented with 1×PIC and permeabilized by the addition of pre-chilled 80% methanol while simultaneously vortexing the tube and incubated on ice for 10 minutes. Methanol was removed by centrifugation, the pellet was washed with ice-cold 1×PBS, and non-specific binding was blocked by the addition of ice-cold Wash Buffer supplemented with 1×PIC and incubation at 4° C. for a minimum of 30 minutes.\n(§3) To stain cells with fluorescent conjugated monoclonal antibodies, the incubated solution was centrifuged to remove the supernatant and the pellet was incubated for 60 minutes at 4° C. with an antibody staining solution including 0.25 μg to 0.50 μg of pS6-Pacific Blue, pERK-ALEXA 488, pSTAT5-ALEXA 647, CD34-PE, CD45-PerCP, and CD117-PC7. Samples were washed three times with ice-cold Wash Buffer supplemented with 1×PIC, resuspended in 0.5 mL ice-cold Wash Buffer supplemented with 1×PIC including 0.5 μg/mL DAPI, and analyzed by flow cytometryusing a BD LSR II Flow Cytometer, equipped with a High Throughput Sampler (HTS).\n(§4) First, doublets, aggregates, and debris were excluded by gating on single cell events in the SSC-Area versus SSC-Height histogram. Then, in events passing through this gate, debris near the origin of the FSC-Area versus SSC-Area plot (gray in FIG. 4A) was excluded by drawing a gate around an area encompassing, primarily, lymphocytes, monocytes, and granulocytes (LMG, black in FIG. 4A). Next, in cells passing through the LMG gate, the blast region (circle in FIG. 4B) was identified in the CD45 versus SSC-Area histogram (FIG. 4B). From this blast population, CD34+, CD117+ cells were identified in the CD34 versus CD117 plot (boxed area in FIG. 4C)."}, "pS6 [2]": {"tested_on": "pS6", "assay": "Phosphoprotein kinetic profiles in bone marrow samples from healthy donors", "experimental": "as §1, §2, §3, §4"}, "pSTAT5 [3]": {"tested_on": "pSTAT5", "assay": "Phosphoprotein kinetic profiles in bone marrow samples from healthy donors", "experimental": "as §1, §2, §3, §4"}, "pERK [4]": {"tested_on": "pERK", "assay": "Phosphoprotein kinetic profiles in CD34+, CD117+ cells of AML bone marrow samples", "details": "CD34^+, CD117^+ cells, AML1 sample (Example 6)", "experimental": "as §2, §3\n(§5) First, doublets, aggregates, and debris were excluded by gating on single cell events in the SSC-Area versus SSC-Height histogram. Then, in events passing through this gate, debris near the origin of the FSC-Area versus SSC-Area plot (gray in FIG. 4A) was excluded by drawing a gate around an area encompassing, primarily, lymphocytes, monocytes, and granulocytes (LMG, black in FIG. 4A). Next, in cells passing through the LMG gate, the blast region (circle in FIG. 4B) was identified in the CD45 versus SSC-Area histogram (FIG. 4B). From this blast population, CD34+, CD117+ cells were identified in the CD34 versus CD117 plot (boxed area in FIG. 4C). Finally, these cells were further analyzed for cytokine-mediated increases in phosphorylation by constructing gates in the single parameter histograms (for positively and negatively stained events, i.e., for the phosphorylated and non-phosphorylated forms, respectively, of each protein) for pS6 (FIGS. 4D and 4G), pERK (FIGS. 4E and 4H), and pSTAT5 (FIGS. 4F and 4I). […] The dotted lines in each of these histograms represent unstimulated cells at t=0 min. FCS files were processed with WinList 6.0 3D (Verity Software House)."}, "pS6 [5]": {"tested_on": "pS6", "assay": "Phosphoprotein kinetic profiles in CD34+, CD117+ cells of AML bone marrow samples", "details": "CD34^+, CD117^+ cells, AML1 sample (Example 6)", "experimental": "as §2, §3, §5"}, "pSTAT5 [6]": {"tested_on": "pSTAT5", "assay": "Phosphoprotein kinetic profiles in CD34+, CD117+ cells of AML bone marrow samples", "details": "AML1 sample (Example 6)", "experimental": "as §2, §3, §5"}, "[7]": {"details": "CD34^+, CD117^+ cells, healthy donor samples"}, "[8]": {"details": "monocytes, healthy donor bone marrow"}, "[9]": {"details": "monocytes vs CD34^+, CD117^+ cells"}}, "note": "“And” between values parts separate entries of the source, which are not always exact repeats. Equal entries are not always repeated."}
{"substance": "Granulocyte-Macrophage Colony-Stimulating Factor [GM-CSF]", "values": [{"measurement": "pERK Amp (peak amplitude of fold stimulation)", "setting": "pERK [1]; [7]", "value": "4.5 and 4.5 ± 0.6"}, {"measurement": "pERK RI (response interval)", "setting": "pERK [1]; [7]", "value": "Variable"}, {"measurement": "pERK maximal fold stimulation", "setting": "pERK [1]; [8]", "value": "about 100"}, {"measurement": "pS6 Amp (peak amplitude of fold stimulation)", "setting": "pS6 [2]; [7]", "value": "1.8 and 1.8 ± 0.3"}, {"measurement": "pS6 RI (response interval)", "setting": "pS6 [2]; [7]", "value": "Variable"}, {"measurement": "pS6 maximal fold stimulation in monocytes, times the level observed in CD34^+, CD117^+ cells", "setting": "pS6 [2]; [9]", "value": "about 100 times"}, {"measurement": "pS6 maximal fold stimulation", "setting": "pS6 [2]; [8]", "value": "about 500"}, {"measurement": "pSTAT5 RI (response interval)", "setting": "pSTAT5 [3]; [7]", "value": ">60", "unit": "min"}, {"measurement": "pSTAT5 maximal fold stimulation in monocytes, times the level observed in CD34^+, CD117^+ cells", "setting": "pSTAT5 [3]; [9]", "value": "about 500 times"}, {"measurement": "pSTAT5 maximal fold stimulation", "setting": "pSTAT5 [3]; [8]", "value": "approximately 10,000"}, {"measurement": "pERK Amp (peak amplitude of fold stimulation)", "setting": "pERK [4]", "value": 6}, {"measurement": "pERK RI (response interval)", "setting": "pERK [4]", "value": 10, "unit": "min"}, {"measurement": "pS6 Amp (peak amplitude of fold stimulation)", "setting": "pS6 [5]", "value": 1}, {"measurement": "pS6 RI (response interval)", "setting": "pS6 [5]", "value": 20, "unit": "min"}, {"measurement": "pSTAT5 Amp (peak amplitude of fold stimulation)", "setting": "pSTAT5 [6]", "value": 110}, {"measurement": "pSTAT5 RI (response interval)", "setting": "pSTAT5 [6]", "value": ">60", "unit": "min"}]}
